In patent US11912793B2, “Polypeptide and application thereof in bone repair” (SICHUAN UNIVERSITY, priority 2022, dated 2024):

Experiments:
calvarial defects = assay: Calvarial defect implantation of polypeptide-modified GelMA, H&E and Goldner's trichrome staining; type: in vivo, SD male rats; settings: GelMA scaffold with peptide 0.1 mg/mL, 5 mm calvarial defect, 4 weeks post-implantation
Method: • 2.1 GelMA Preparation: gelatin was fully dissolved in phosphate-buffered saline (PBS) at 60° C. with a concentration of 10% (w/v). […] Double PBS was added to the mixture to stop the reaction. The solution was dialyzed against distilled water using 12-14 kDa dialysis tubing for 1 week. The obtained GelMA solution was frozen at −20° C. overnight and lyophilized for 72 h to get sponge GelMA. • 2.2 Polypeptide modification: 2 g lyophilized GelMA was dissolved in 10 mL PBS containing 0.1% (w/v) photoinitiator LAP at 60° C. Then, either a control peptide or GS18 was added to achieve a final concentration of 0.1 mg/mL. The above mixture was injected into the mold (20 μL/hole) and exposed to ultraviolet irradiation (6.9 W/cm^2, 360-489 nm) for 2 min at room temperature. Once solidified, the materials were carefully detached from the mold and placed on ice for use. • 2.3 Result verification: photographs were captured to depict the morphological characteristics of the polypeptide-modified GelMA after it was separated from the mold.
• 3.1 Sample preparation: the GelMA scaffold was utilized to encapsulate either GS18 or control peptide at a concentration of 0.1 mg/mL, resulting in a total volume of 0.02 cm^3. • 3.2 Animal model: 12-week-old SD male rats (about 320±20 g each) were used. Each group contained 3 rats. Rats were anesthetized with 2% pentobarbital via abdominal injection. The rats were positioned in the prone position. An electric razor was utilized to remove fur from the cranial region. Following this, the surgical sites were thoroughly cleansed with iodophor for disinfection. To maintain a sterile condition, disposable towels were carefully placed over the surgical regions. Starting from the nasal bone, a longitudinal skin incision of 1.5-2.0 cm was made along the midline of the top of the head. The subcutaneous tissue was gently separated with the handle of a surgical knife. The periosteum was meticulously incised along the sagittal suture of the cranium and subsequently separated to fully expose the parietal bone, occipital bone, and part of the frontal bone. Bilateral full-thickness circular calvarial defects (diameter=5 mm) were generated using a trephine. Sterilized materials were implanted into the defect sites. The experimental group was implanted with GS18-modified GelMA, While the control group was implanted with control peptide-modified GelMA. Finally, the skin was reset, sutured, and disinfected. • 3.3 Tissue slices: after 4 weeks, the rats were sacrificed. […] The paraffin tissue slices were heated at 65° C., dewaxed, hydrated with xylene and gradient ethanol, and stained with H&E and Goldner's trichrome staining for histological evaluation.

[1] = test system: osteogenesis-oriented BMSCs (pre-osteoblasts); assay: In vitro osteogenic differentiation, Von kossa staining; type: cell-based, C57BL/6 male mice; settings: 5 days OM pretreatment, then 14 days peptide-containing OM, compared with the control peptide
Method: • 1.1 Cell culture: primary bone mesenchymal stem cells (BMSCs) extracted from the long bones of 3-week-old C57BL/6 male mice were selected, cultured at 37° C. in a humidified atmosphere with 5% CO2, and inoculated into a 24-well plate with 30000 cells/well. α-MEM supplemented with 5% FBS, 1% penicillin-streptomycin, […], 10 mM β-glycerophosphate, and 50 μg/mL L-ascorbic acid was used as the osteogenic medium (OM) for osteogenic induction. • 1.2 Cell induction: BMSCs were pretreated with OM for 5 days to achieve a determined osteogenic precursor cell state, followed by ongoing induction with peptide-containing OM for another 14 days. The experimental group used OM added with GS18, and the control group used OM added with the control peptide. GS18 was synthesized using a solid-phase polypeptide synthesis and was purified by HPLC (purity=96.59%). The amino acid sequence of the control peptide was shown as SEQ ID NO: 2, i.e. CKPLRLSKEEHPLK. The control peptide also adopted a solid-phase polypeptide synthesis method and used HPLC to purify products (purity=96.15%). […] The integrated density of calcium nodes (IntDen) and the percent of the calcified area to the total area (Area %) from five random areas were measured by Fiji. **p<0.01.

Wnt/β-catenin pathway = assay: Immunofluorescence staining of active β-catenin and osteocalcin in calvarial defects; type: in vivo, SD male rats; settings: 4 weeks after implantation
Method: • 3.1 Sample preparation: the GelMA scaffold was utilized to encapsulate either GS18 or control peptide at a concentration of 0.1 mg/mL, resulting in a total volume of 0.02 cm^3. • 3.2 Animal model: 12-week-old SD male rats (about 320±20 g each) were used. Each group contained 3 rats. Rats were anesthetized with 2% pentobarbital via abdominal injection. The rats were positioned in the prone position. An electric razor was utilized to remove fur from the cranial region. Following this, the surgical sites were thoroughly cleansed with iodophor for disinfection. To maintain a sterile condition, disposable towels were carefully placed over the surgical regions. Starting from the nasal bone, a longitudinal skin incision of 1.5-2.0 cm was made along the midline of the top of the head. The subcutaneous tissue was gently separated with the handle of a surgical knife. […]
• 4.1 Antigen repair: the paraffin slices prepared in Embodiment 3.3 were heated at 65° C., dewaxed, hydrated with xylene and gradient ethanol, and immersed in the antigen repair buffer at 100° C. for 40 min. […] Subsequently, the sections were washed with PBS three times for 15 min each time and sealed by the anti-fluorescence quencher. • 4.3 Result verification: images of immunofluorescence staining were acquired using a confocal laser scanning microscope (CLSM, FV3000, Olympus, Japan).

| Sequence | H&E staining: cellular growth / cell recruitment in the defect (FIG. 3) (calvarial defects) | H&E staining: fiber mineralization in the defect (FIG. 3) (calvarial defects) | formation of calcium deposits of pre-osteoblasts (FIG. 1B) [1] | maturation of calcium deposits of pre-osteoblasts (FIG. 1C) [1] | expression of Ocn in the defect area (FIG. 5) (Wnt/β-catenin pathway) | expression of active β-Catenin in newly formed tissues of the calvarial defects (FIG. 5) (Wnt/β-catenin pathway; compared to non-peptide-modified GelMA) | Goldner's trichrome staining: cellular growth / cell infiltration in the defect (FIG. 4) (calvarial defects) |
| --- | --- | --- | --- | --- | --- | --- | --- |
| GPGGDKCRCVFHWVCCYVS (GPGGDKCRCVFHWCCYVS; The sequence is synthetized) [GS18] | capacity to attract and recruit cells into the scaffolds | high degree of fiber mineralization | significantly increased | significantly increased | robust and widespread | significantly enhanced |  |
| CKPLRLSKEEHPLK (The sequence is synthetized) [control peptide, control peptide made by solid-phase polypeptide synthesis, reference compound] | noticeable lack of cellular growth in the central region of the defect |  |  |  |  |  | conspicuous paucity of cellular growth within the central region of the defect |
